In patent US11389395B2, “Encapsulation of microbubbles within the aqueous core of microcapsules” (DREXEL UNIVERSITY, priority 2009, dated 2022):

Tests used:
[1] = Microbubble growth on heating above the phospholipid chain melting temperature; assay type: physicochemical; conditions: microbubbles made at 7° C., heated to 37° C.
Description: Use of a gel-phase lipid is required to prevent gas from escaping the microbubble. […] Indeed, these microbubbles expanded so as to fill the capillary in which they were contained and therefore became nonspherical, taking on the geometry of the capillary itself. […] Such growth may have resulted from simple expansion of individual microbubbles or by inward diffusion of gas.

[2] = Survival of microbubbles made at different processing temperatures; assay type: physicochemical; conditions: formulations included 5 mol % PEG6000MS; for survival of microbubbles, 7° C.: processing temperature 7° C.; for survival of microbubbles, 37° C.: processing temperature 37° C.; for survival of microbubbles, 60° C.: processing temperature 60° C.
Description: Table 1 lists three phospholipid species, along with their gel transition temperatures, and the results of experiments attempting to make stable microbubbles with these species at different temperatures. All microbubble formulations included 5 mol % PEG6000MS.
In all cases in which the processing temperature was below the gel transition temperature, irrespective of the phospholipid identity, microbubble synthesis was feasible. Conversely, microbubble synthesis at temperatures greater than the gel transition temperature was not feasible, regardless of which phospholipid was used.

SMILES | microbubble growth upon heating [1] | survival of microbubbles, 7° C. [2] | survival of microbubbles, 37° C. [2] | survival of microbubbles, 60° C. [2]
CCCCCCCCCCCCCC(=O)OC[C@H](COP(=O)([O-])OCC[N+](C)(C)C)OC(=O)CCCCCCCCCCCCC [DMPC, dimyristoylphosphatidylcholine] | grew spontaneously | Yes | No | No
CCCCCCCCCCCCCCCCCC(=O)OC[C@H](COP(=O)([O-])OCC[N+](C)(C)C)OC(=O)CCCCCCCCCCCCCCCCC [DSPC, 1,2-distearoyl-sn-glycero-3-phosphocholine] | No such growth was observed | Yes | Yes | No
